# Assay results published in BindingDB's records for doi:10.1016/s0960-894x(01)00395-x (Novo Nordisk, 2001).
# pIC50: −log10 of the molar value.
# Molecular target: Glucose-6-phosphatase catalytic subunit (Sus scrofa)
# Experiment: Compound was evaluated for inhibition of Glucose-6-Phosphatase from Triton X-100 disrupted pig liver microsomes.
row,SMILES,pIC50
1,"C(=N\N(Cc1ccccc1)Cc1ccccc1)/c1ccccc1 [N,N-Dibenzyl-N'-[1-phenyl-meth-(E)-ylidene]-hydrazine]",5.82
2,CN(C)c1ccc(/C=N/N(Cc2ccccc2)Cc2ccccc2)cc1 [[4-(Dibenzyl-hydrazonomethyl)-phenyl]-dimethyl-amine],4.00
3,"C(=N\N(Cc1ccccc1)Cc1ccccc1)/c1ccco1 [N,N-Dibenzyl-N'-[1-furan-2-yl-meth-(E)-ylidene]-hydrazine]",5.96
4,"COc1ccc2c(c1)CCCC2=NN(Cc1ccccc1)Cc1ccccc1 [N,N-Dibenzyl-N'-[6-methoxy-3,4-dihydro-2H-naphthalen-(1E)-ylidene]-hydrazine]",< 4.30
5,Oc1ccc(/C=N/N(Cc2ccccc2)Cc2ccccc2)cc1 [4-(Dibenzyl-hydrazonomethyl)-phenol],5.62
6,"Clc1cc(Cl)cc(/C=N/N(Cc2ccccc2)Cc2ccccc2)c1 [N,N-Dibenzyl-N'-[1-(3,5-dichloro-phenyl)-meth-(E)-ylidene]-hydrazine]",< 4.00
7,"C(=N\N(Cc1ccccc1)Cc1ccccc1)/c1cccs1 [N,N-Dibenzyl-N'-[1-thiophen-2-yl-meth-(E)-ylidene]-hydrazine]",5.82
8,"COc1ccc(/C=N/N(Cc2ccccc2)Cc2ccccc2)cc1 [N,N-Dibenzyl-N'-[1-(4-methoxy-phenyl)-meth-(E)-ylidene]-hydrazine]",6.66
9,OCc1ccc(/C=N/N(Cc2ccccc2)Cc2ccccc2)o1 [[5-(Dibenzyl-hydrazonomethyl)-furan-2-yl]-methanol],4.80
10,"Clc1ccc(/C=N/N(Cc2ccccc2)Cc2ccccc2)s1 [N,N-Dibenzyl-N'-[1-(5-chloro-thiophen-2-yl)-meth-(E)-ylidene]-hydrazine]",6.77

# Next, values leading:
row,pIC50,SMILES
1,6.48,"CCc1ccc(/C=N/N(Cc2ccccc2)Cc2ccccc2)o1 [N,N-Dibenzyl-N'-[1-(5-ethyl-furan-2-yl)-meth-(E)-ylidene]-hydrazine]"
2,< 4.00,"COc1ccccc1/C=N/N(Cc1ccccc1)Cc1ccccc1 [N,N-Dibenzyl-N'-[1-(2-methoxy-phenyl)-meth-(E)-ylidene]-hydrazine]"
3,5.70,"Clc1ccc(/C=N/N(Cc2ccccc2)Cc2ccccc2)cc1Cl [N,N-Dibenzyl-N'-[1-(3,4-dichloro-phenyl)-meth-(E)-ylidene]-hydrazine]"
4,6.62,"Clc1ccc(/C=N/N(Cc2ccccc2)Cc2ccccc2)cc1 [N,N-Dibenzyl-N'-[1-(4-chloro-phenyl)-meth-(E)-ylidene]-hydrazine]"
5,5.43,"C(=N\N(Cc1ccccc1)Cc1ccccc1)/c1cccnc1 [N,N-Dibenzyl-N'-[1-pyridin-3-yl-meth-(E)-ylidene]-hydrazine]"
